Molecular target: T1, HIV reverse transcriptase (Human immunodeficiency virus type 1 group M subtype B, UniProt P04585)
T1 construct: 0.025 U/μL HIV reverse transcriptase
Assay: Steady-state kinetics of nucleotide incorporation in a DNA hybrid by HIV reverse transcriptase
Format: biochemical
Details: 0.025 U/μL HIV reverse transcriptase, 250 nM primer/template, average of three determinations
Procedure: Determination of Km and Kcat values for the incorporation of dATP and PMDTApp in a DNA hybrid was carried out under steady-state conditions as described by Creighton et al. in Methods in Enzymology (1995) 262:232-256. […] Results given below are the average of three independent determinations. The reaction mixture contained 250 nM primer/template complex 0.025 U/μL HIV reverse transcriptase, and the triphosphate nucleotides to be incorporated (dATP and PMDTApp, respectively). The template sequence and the primer sequence used in this experiment are shown below. The reaction was quenched after 1, 2 and 3 minutes by adding a double volume of stop solution (90% formamide, 0.05% bromophenol blue, 0.05% xylene cyanol and 50 mM EDTA). Samples were analyzed by gel electrophoresis on a 16% polyacrylamide ureum gel in TBE buffer (89 mM Tris-borate, 2 mM EDTA buffer, pH 8.3) after heating the samples for 5 minutes at 70° C. Products were visualised by phosphorimaging. The amount of radioactivity in the bands corresponding to the products of the enzymatic reactions was determined using the Optiquant Image Analysis Software (Packard). Rate profiles were determined using GraphPad Prism® software.

Work on `Nc1ncnc2c1ncn2[C@H]1C[C@H](O)[C@@H](COP(=O)(O)OP(=O)(O)OP(=O)(O)O)O1` [dATP, deoxy-adenosine triphosphate] yielded a Kcat of 0.66 min − 1 and a Km of 0.1 µM.

From patent US8076310B2, “Phosphonate nucleosides useful as active ingredients in pharmaceutical compositions for the treatment of viral infections, and intermediates for their production” (K.U.Leuven Research & Development, priority 2004, dated 2011)
